Assay: Quantification of garlic-derived metabolites in human urine after ingestion of 3 g raw garlic (SIDA, SAFE, HRGC-MS / HRGC-GC-MS)
Assay type: in vivo
Details: 3 g raw garlic
Description: Human urine samples were obtained from 18 volunteers (age 22–38 years, mean 27 years; 11 females, 7 males); thereby, one volunteer conducted the whole experimental series twice. At the time of examination, volunteers reported no known illness that might have potentially influenced the metabolism or the excretion of urine. The test persons were instructed to avoid foods that were rich in sulfur-containing substances at the testing day as well as 2 days preceding the testing day, namely garlic, onion, wild garlic, chives, cabbage, and leek, and were only allowed to consume the garlic sample provided in the course of the experiments. Additionally, subjects were asked to keep records of the food (including food supplements) and beverages they consumed during these 3 testing days. Generally, the overall panelists' requirements were in accordance with our previous studies ([5], [16]).
On the sampling day, the outer garlic cloves of a whole garlic bulb were peeled and cut into ~3 mm cubes by using a garlic cutter (Genius GmbH, Limburg/Lahn, Germany). Subsequently these cubes were thoroughly mixed and aliquoted into 3 g portions. Three to four test persons conducted the experiment at the same day. Each test person was asked to ingest a garlic portion of 3 g. In total, eight consecutive urine samples were provided by each test person, comprising one whole urine set. The samples were collected in sterile brown glass bottles, with sampling times as follows: one sample was provided directly prior to garlic consumption. The series of the second to eighth sample was then obtained at about 0.5, 1, 2, 4, 6, 8, and 24 h after garlic consumption, respectively. Between the first urine sample (prior to garlic consumption) and the seventh urine sample (8 h after garlic consumption) test persons only spent urine at the specific time points mentioned before. Another sample was provided at the next morning (24 h after garlic consumption). Between the samples provided 8 and 24 h after garlic consumption no urine was collected. All samples were immediately placed into a −80°C freezer and were kept frozen until further analysis.
The samples of each set were termed according to their sampling time. The following list provides the time intervals that are related to the respective sample name: • - pre: before garlic consumption • - 0.5 h post: 0.4–0.8 h after garlic consumption • - 1 h post: 0.9–1.3 h after garlic consumption • - 2 h post: 1.8 h−2.2 h after garlic consumption • - 4 h post: 3.8–4.4 h after garlic consumption • - 6 h post: 5.8–6.4 h after garlic consumption • - 8 h post: 7.8–8.4 h after garlic consumption • - 24 h post: 23.8–25.6 h after garlic consumption
A creatinine kit (Labor+Technik Eberhard Lehmann GmbH, Berlin, Germany) was used to determine the creatinine content in each urine sample. The determination principle of this kit is based on the reaction of creatinine with picric acid under basic conditions (Jaffé reaction). The formed complex was detected photometrically at a wavelength of 492 nm.
For quantification purposes, the deuterated standards ^2H3-AMS, ^2H3-AMSO, and ^2H3-AMSO2 were added to the sample and stirred for 10 min. Subsequently, DCM was added in a ratio of 1:2 (DCM/human urine; v/v) and this solution was stirred for further 30 min at room temperature. To isolate the volatile fraction from the urine samples we then applied SAFE-distillation ([17]), thereby distilling the respective samples at 50°C. After completion of the distillation process, 10 mL of DCM were applied in each case to rinse the SAFE apparatus and to ensure complete transition of the volatile compounds. This process was repeated with another 10 mL of DCM. After thawing, the obtained aqueous distillate phase was extracted three times with 25 mL DCM. The organic phases were combined, dried over anhydrous Na2SO4 and concentrated to a total volume of 100 μL by means of Vigreux distillation and subsequent micro-distillation at 50°C. […]

- metabolite concentration in urine (U IV, 6 h post (6.08 h)): 96.7 µg/kg
- metabolite concentration in urine, creatinine-normalized (U IV, 6 h post (6.08 h)): 6.9 µg/mmol creatinine
- metabolite concentration in urine (U IV, 8 h post (8.05 h)): 73.4 µg/kg
- metabolite concentration in urine, creatinine-normalized (U IV, 8 h post (8.05 h)): 15.4 µg/mmol creatinine
- metabolite concentration in urine (U IV, 24 h post (24.03 h)): 6.8 µg/kg
- metabolite concentration in urine, creatinine-normalized (U IV, 24 h post (24.03 h)): 0.7 µg/mmol creatinine
- metabolite concentration in urine (U IV, pre (-0.05 h)): < LOD^3
- metabolite concentration in urine, creatinine-normalized (U IV, pre (-0.05 h)): < LOD^3
- metabolite concentration in urine (U IX, 0.5 h post (0.67 h)): 54.8 µg/kg
- metabolite concentration in urine, creatinine-normalized (U IX, 0.5 h post (0.67 h)): 52.1 µg/mmol creatinine
- metabolite concentration in urine (U IX, 1 h post (1.17 h)): 161.7 µg/kg
- metabolite concentration in urine, creatinine-normalized (U IX, 1 h post (1.17 h)): 167.7 µg/mmol creatinine
- metabolite concentration in urine (U IX, 2 h post (1.83 h)): 248.6 µg/kg
- metabolite concentration in urine, creatinine-normalized (U IX, 2 h post (1.83 h)): 236.2 µg/mmol creatinine
- metabolite concentration in urine (U IX, 4 h post (4.17 h)): 367.0 µg/kg
- metabolite concentration in urine, creatinine-normalized (U IX, 4 h post (4.17 h)): 70.5 µg/mmol creatinine
- metabolite concentration in urine (U IX, 6 h post (6.08 h)): 343.5 µg/kg
- metabolite concentration in urine, creatinine-normalized (U IX, 6 h post (6.08 h)): 107.8 µg/mmol creatinine
- metabolite concentration in urine (U IX, 8 h post (8.08 h)): 269.3 µg/kg
- metabolite concentration in urine, creatinine-normalized (U IX, 8 h post (8.08 h)): 19.2 µg/mmol creatinine
- metabolite concentration in urine (U IX, 24 h post (24.00 h)): 5.9 µg/kg
- metabolite concentration in urine, creatinine-normalized (U IX, 24 h post (24.00 h)): 0.7 µg/mmol creatinine
- metabolite concentration in urine (U IX, pre (-0.08 h)): < LOD^3
- metabolite concentration in urine, creatinine-normalized (U IX, pre (-0.08 h)): < LOD^3
- metabolite concentration in urine (U V, 0.5 h post (0.50 h)): 33.9 µg/kg
- metabolite concentration in urine, creatinine-normalized (U V, 0.5 h post (0.50 h)): 49.6 µg/mmol creatinine
- metabolite concentration in urine (U V, 1 h post (1.00 h)): 80.4 µg/kg
- metabolite concentration in urine, creatinine-normalized (U V, 1 h post (1.00 h)): 96.0 µg/mmol creatinine
- metabolite concentration in urine (U V, 2 h post (2.00 h)): 111.3 µg/kg
- metabolite concentration in urine, creatinine-normalized (U V, 2 h post (2.00 h)): 132.8 µg/mmol creatinine
- metabolite concentration in urine (U V, 4 h post (4.00 h)): 142.9 µg/kg
- metabolite concentration in urine, creatinine-normalized (U V, 4 h post (4.00 h)): 46.1 µg/mmol creatinine
- metabolite concentration in urine (U V, 6 h post (6.00 h)): 151.3 µg/kg
- metabolite concentration in urine, creatinine-normalized (U V, 6 h post (6.00 h)): 30.1 µg/mmol creatinine
- metabolite concentration in urine (U V, 8 h post (8.00 h)): 99.4 µg/kg
- metabolite concentration in urine, creatinine-normalized (U V, 8 h post (8.00 h)): 45.8 µg/mmol creatinine
- metabolite concentration in urine (U V, 24 h post (24.00 h)): 5.1 µg/kg
- metabolite concentration in urine, creatinine-normalized (U V, 24 h post (24.00 h)): 0.9 µg/mmol creatinine
- metabolite concentration in urine (U V, pre (-0.05 h)): < LOD^3
- metabolite concentration in urine, creatinine-normalized (U V, pre (-0.05 h)): < LOD^3
- metabolite concentration in urine (U VI, 0.5 h post (0.50 h)): 74.1 µg/kg
- metabolite concentration in urine, creatinine-normalized (U VI, 0.5 h post (0.50 h)): 33.9 µg/mmol creatinine
- metabolite concentration in urine (U VI, 1 h post (1.00 h)): 87.6 µg/kg
- metabolite concentration in urine, creatinine-normalized (U VI, 1 h post (1.00 h)): 73.1 µg/mmol creatinine
- metabolite concentration in urine (U VI, 2 h post (2.00 h)): 136.6 µg/kg
- metabolite concentration in urine, creatinine-normalized (U VI, 2 h post (2.00 h)): 123.2 µg/mmol creatinine
- metabolite concentration in urine (U VI, 4 h post (4.00 h)): 150.1 µg/kg
- metabolite concentration in urine, creatinine-normalized (U VI, 4 h post (4.00 h)): 43.2 µg/mmol creatinine
- metabolite concentration in urine (U VI, 6 h post (6.00 h)): 147.1 µg/kg
- metabolite concentration in urine, creatinine-normalized (U VI, 6 h post (6.00 h)): 27.1 µg/mmol creatinine
- metabolite concentration in urine (U VI, 8 h post (8.00 h)): 106.7 µg/kg
- metabolite concentration in urine, creatinine-normalized (U VI, 8 h post (8.00 h)): 21.2 µg/mmol creatinine
- metabolite concentration in urine (U VI, 24 h post (24.17 h)): 9.2 µg/kg
- metabolite concentration in urine, creatinine-normalized (U VI, 24 h post (24.17 h)): 0.6 µg/mmol creatinine
- metabolite concentration in urine (U VI, pre (-0.05 h)): < LOD^3
- metabolite concentration in urine, creatinine-normalized (U VI, pre (-0.05 h)): < LOD^3
- metabolite concentration in urine (U VII, 0.5 h post (0.50 h)): 44.1 µg/kg
- metabolite concentration in urine, creatinine-normalized (U VII, 0.5 h post (0.50 h)): 41.3 µg/mmol creatinine
SMILES: C=CCS(C)(=O)=O [AMSO2, allyl methyl sulfone]

Source: PMC6499206, “Quantification of Volatile Metabolites Derived From Garlic (Allium sativum) in Human Urine” (Frontiers in Nutrition, 2019)
